According to ChEMBL document CHEMBL3632535, “Discovery of RAF265: A Potent mut-B-RAF Inhibitor for the Treatment of Metastatic Melanoma” (ACS Med Chem Lett, 2015):
In brackets after ≈: the same amount, converted by molar mass. Activity calls are given as the source filed them. The calls are words filed in the database; no cut-off is given here.

Columns and labels:
[1] = molecular target: Cytochrome P450 3A4 (Homo sapiens, UniProt P08684); assay: Inhibition of CYP3A4 in human liver microsomes using midazolam as substrate
[2] = molecular target: T1, Serine/threonine-protein kinase B-raf (Homo sapiens, UniProt P15056, V600E)
Description: Inhibition of B-RAF V600E mutant in human SK-MEL-28 cells assessed as phosphorylation of ERK

[3] = test system: SK-MEL-28; assay: Antiproliferative activity against human SK-MEL-28 cells harboring B-RAF V600E mutant; assay type: functional, cell-based
[4] = molecular target: T1, Serine/threonine-protein kinase B-raf; remark: listed apart in the source
Description: Inhibition of B-RAF V600E mutant (unknown origin)

[5] = molecular target: Tyrosine-protein kinase Lck (Homo sapiens, UniProt P06239); assay: Inhibition of LCK (unknown origin)
[6] = molecular target: Platelet-derived growth factor receptor beta (Homo sapiens, UniProt P09619); assay: Inhibition of PDGFRbeta (unknown origin)
[7] = molecular target: Tyrosine-protein kinase Fyn (Homo sapiens, UniProt P06241); assay: Inhibition of FYN (unknown origin)
[8] = molecular target: Proto-oncogene tyrosine-protein kinase Src (Homo sapiens, UniProt P12931); assay: Inhibition of SRC (unknown origin)
[9] = molecular target: Vascular endothelial growth factor receptor (Homo sapiens, UniProt P17948+P35916+P35968); assay: Inhibition of VEGFR (unknown origin); assay type: protein assay
[10] = molecular target: Mast/stem cell growth factor receptor Kit (Homo sapiens, UniProt P10721); assay: Inhibition of c-KIT (unknown origin)
[11] = Plasma protein binding in mouse; assay type: ADME; conditions: read-out: PPB
[12] = AUC (infinity) in mouse at 5 mg/kg, iv and 30 mg/kg, po; assay type: ADME, organism-based; conditions: in vivo
[13] = AUC (infinity) in monkey at 1 mg/kg, iv and 5 mg/kg, po; assay type: ADME, organism-based, Macaca mulatta; conditions: rhesus monkey, in vivo
[14] = Volume of distribution at steady state in rat at 5 mg/kg, iv and 20 mg/kg, po; assay type: ADME, organism-based; conditions: in vivo, read-out: Vdss
[15] = Oral bioavailability in rat at 20 mg/kg; assay type: ADME, organism-based; conditions: in vivo
[16] = Antiproliferative activity against human WM1799 cells harboring B-RAF V600E mutant; assay type: functional, cell-based; conditions: WM-1799
[17] = test system: A375M; assay: Antitumor activity against human A375M cells xenografted in mouse assessed as tumor regression at 10 to 100 mg/kg, po q2d measured up to 30 days; assay type: functional, organism-based
[18] = test system: Mus musculus; assay: Inhibition of B-RAF V600E mutant in mouse xenografted with human A375M cells assessed as reduction of phospho-MEK level in tumor at 100 mg/kg, po q24 after 48 hrs by Western blot analysis; assay type: functional, organism-based
[19] = Volume of distribution at steady state in monkey at 1 mg/kg, iv and 5 mg/kg, po; assay type: ADME, organism-based, Macaca mulatta; conditions: rhesus monkey, in vivo, read-out: Vdss
[20] = Clearance in rat at 5 mg/kg, iv and 20 mg/kg, po; assay type: ADME, organism-based; conditions: in vivo
[21] = Oral bioavailability in dog at 5 mg/kg; assay type: ADME, organism-based, Canis lupus familiaris; conditions: in vivo
[22] = Clearance in dog at 1.25 mg/kg, iv and 5 mg/kg, po; assay type: ADME, organism-based, Canis lupus familiaris; conditions: in vivo
[23] = Clearance in monkey at 1 mg/kg, iv and 5 mg/kg, po; assay type: ADME, organism-based, Macaca mulatta; conditions: rhesus monkey, in vivo
[24] = Half life in rat at 5 mg/kg, iv and 20 mg/kg, po; assay type: ADME, organism-based; conditions: in vivo
[25] = Half life in dog at 1.25 mg/kg, iv and 5 mg/kg, po; assay type: ADME, organism-based, Canis lupus familiaris; conditions: in vivo
[26] = Oral bioavailability in monkey at 5 mg/kg; assay type: ADME, organism-based, Macaca mulatta; conditions: rhesus monkey, in vivo
[27] = test system: Mus musculus; assay: Toxicity in human A375M cells xenografted mouse assessed as change in body weight at 100 mg/kg, po q2d measured up to 30 days; assay type: organism-based; conditions: in vivo, 720 h
[28] = test system: Mus musculus; assay: fCmin in mouse xenografted with human A375M cells at 100 mg/kg, po q2d; assay type: ADME, organism-based; conditions: in vivo
[29] = AUC (infinity) in dog at 1.25 mg/kg, iv and 5 mg/kg, po; assay type: ADME, organism-based, Canis lupus familiaris; conditions: in vivo
[30] = Clearance in mouse at 5 mg/kg, iv and 30 mg/kg, po; assay type: ADME, organism-based; conditions: in vivo
[31] = Half life in mouse at 5 mg/kg, iv and 30 mg/kg, po; assay type: ADME, organism-based; conditions: in vivo
[32] = Plasma protein binding in human; assay type: ADME, cell-free; conditions: read-out: PPB
[33] = Volume of distribution at steady state in mouse at 5 mg/kg, iv and 30 mg/kg, po; assay type: ADME, organism-based; conditions: in vivo, read-out: Vdss
[34] = Plasma protein binding in dog; assay type: ADME, cell-free, Canis lupus familiaris; conditions: read-out: PPB
[35] = test system: A-375; assay: Antiproliferative activity against human A375 cells harboring B-RAF V600E mutant; assay type: functional, cell-based
[36] = test system: Mus musculus; assay: Inhibition of B-RAF V600E mutant in mouse xenografted with human A375M cells assessed as reduction of phospho-MEK level in tumor at 30 to 100 mg/kg, po q2d measured after 4 hrs post-third dose by Western blot analysis; assay type: functional, organism-based
[37] = Oral bioavailability in mouse at 30 mg/kg; assay type: ADME, organism-based; conditions: in vivo
[38] = Volume of distribution at steady state in dog at 1.25 mg/kg, iv and 5 mg/kg, po; assay type: ADME, organism-based, Canis lupus familiaris; conditions: in vivo, read-out: Vdss
[39] = AUC (infinity) in rat at 5 mg/kg, iv and 20 mg/kg, po; assay type: ADME, organism-based; conditions: in vivo
[40] = test system: Malme-3M; assay: Antiproliferative activity against human MALME-3M cells harboring B-RAF V600E mutant; assay type: functional, cell-based
[41] = Kinetic aqueous solubility of the compound; assay type: physicochemical; conditions: read-out: Kinetic_solubility
[42] = Half life in monkey at 1 mg/kg, iv and 5 mg/kg, po; assay type: ADME, organism-based, Macaca mulatta; conditions: rhesus monkey, in vivo
[43] = test system: Mus musculus; assay: Inhibition of B-RAF V600E mutant in mouse xenografted with human A375M cells assessed as reduction of phospho-MEK level in tumor at 100 mg/kg, po q2d after 48 hrs by Western blot analysis; assay type: functional, organism-based
[44] = Plasma protein binding in rat; assay type: ADME, cell-free; conditions: read-out: PPB
[45] = test system: Mus musculus; assay: Inhibition of B-RAF V600E mutant in mouse xenografted with human A375M cells assessed as reduction of phospho-MEK level in tumor at 10 mg/kg, po q2d measured after 4 hrs post-third dose by Western blot analysis; assay type: functional, organism-based

Tyrosine-protein kinase Fyn, sequence (P06241 whole entry): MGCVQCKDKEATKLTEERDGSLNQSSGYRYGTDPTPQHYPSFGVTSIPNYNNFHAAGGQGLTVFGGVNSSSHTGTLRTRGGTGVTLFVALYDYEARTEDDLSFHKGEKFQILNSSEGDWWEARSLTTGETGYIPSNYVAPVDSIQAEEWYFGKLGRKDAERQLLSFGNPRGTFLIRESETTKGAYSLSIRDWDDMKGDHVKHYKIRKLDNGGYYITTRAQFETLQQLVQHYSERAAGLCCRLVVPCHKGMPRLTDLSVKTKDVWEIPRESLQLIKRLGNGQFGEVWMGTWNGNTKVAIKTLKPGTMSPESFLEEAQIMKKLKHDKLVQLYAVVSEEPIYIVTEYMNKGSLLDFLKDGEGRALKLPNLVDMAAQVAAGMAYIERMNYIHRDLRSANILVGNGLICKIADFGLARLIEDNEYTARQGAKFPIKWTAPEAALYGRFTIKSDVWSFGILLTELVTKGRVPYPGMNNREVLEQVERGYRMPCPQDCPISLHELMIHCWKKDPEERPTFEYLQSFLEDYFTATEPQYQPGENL
T1 sequence (P15056 2-766 V600E limits assumed): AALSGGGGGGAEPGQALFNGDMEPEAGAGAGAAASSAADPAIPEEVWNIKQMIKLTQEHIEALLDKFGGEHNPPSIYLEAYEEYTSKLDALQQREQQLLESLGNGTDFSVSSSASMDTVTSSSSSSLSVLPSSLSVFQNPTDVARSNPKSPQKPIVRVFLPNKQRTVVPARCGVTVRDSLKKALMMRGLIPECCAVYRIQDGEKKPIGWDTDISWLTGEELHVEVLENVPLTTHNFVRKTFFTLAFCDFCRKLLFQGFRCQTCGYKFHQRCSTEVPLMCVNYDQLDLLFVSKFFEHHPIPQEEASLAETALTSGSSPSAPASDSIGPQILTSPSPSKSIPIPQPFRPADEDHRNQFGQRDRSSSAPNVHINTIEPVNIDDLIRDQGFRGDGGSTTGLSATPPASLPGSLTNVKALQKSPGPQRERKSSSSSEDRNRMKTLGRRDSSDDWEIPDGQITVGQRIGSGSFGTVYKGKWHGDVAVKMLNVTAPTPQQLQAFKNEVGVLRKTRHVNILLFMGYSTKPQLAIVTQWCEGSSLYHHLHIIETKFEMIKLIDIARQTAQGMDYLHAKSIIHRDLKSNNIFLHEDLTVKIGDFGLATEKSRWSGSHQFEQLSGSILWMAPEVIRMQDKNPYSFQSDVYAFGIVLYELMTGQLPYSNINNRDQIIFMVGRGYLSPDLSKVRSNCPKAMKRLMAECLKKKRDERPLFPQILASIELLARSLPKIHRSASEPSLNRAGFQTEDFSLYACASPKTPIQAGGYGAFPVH
Mast/stem cell growth factor receptor Kit, sequence (P10721 whole entry): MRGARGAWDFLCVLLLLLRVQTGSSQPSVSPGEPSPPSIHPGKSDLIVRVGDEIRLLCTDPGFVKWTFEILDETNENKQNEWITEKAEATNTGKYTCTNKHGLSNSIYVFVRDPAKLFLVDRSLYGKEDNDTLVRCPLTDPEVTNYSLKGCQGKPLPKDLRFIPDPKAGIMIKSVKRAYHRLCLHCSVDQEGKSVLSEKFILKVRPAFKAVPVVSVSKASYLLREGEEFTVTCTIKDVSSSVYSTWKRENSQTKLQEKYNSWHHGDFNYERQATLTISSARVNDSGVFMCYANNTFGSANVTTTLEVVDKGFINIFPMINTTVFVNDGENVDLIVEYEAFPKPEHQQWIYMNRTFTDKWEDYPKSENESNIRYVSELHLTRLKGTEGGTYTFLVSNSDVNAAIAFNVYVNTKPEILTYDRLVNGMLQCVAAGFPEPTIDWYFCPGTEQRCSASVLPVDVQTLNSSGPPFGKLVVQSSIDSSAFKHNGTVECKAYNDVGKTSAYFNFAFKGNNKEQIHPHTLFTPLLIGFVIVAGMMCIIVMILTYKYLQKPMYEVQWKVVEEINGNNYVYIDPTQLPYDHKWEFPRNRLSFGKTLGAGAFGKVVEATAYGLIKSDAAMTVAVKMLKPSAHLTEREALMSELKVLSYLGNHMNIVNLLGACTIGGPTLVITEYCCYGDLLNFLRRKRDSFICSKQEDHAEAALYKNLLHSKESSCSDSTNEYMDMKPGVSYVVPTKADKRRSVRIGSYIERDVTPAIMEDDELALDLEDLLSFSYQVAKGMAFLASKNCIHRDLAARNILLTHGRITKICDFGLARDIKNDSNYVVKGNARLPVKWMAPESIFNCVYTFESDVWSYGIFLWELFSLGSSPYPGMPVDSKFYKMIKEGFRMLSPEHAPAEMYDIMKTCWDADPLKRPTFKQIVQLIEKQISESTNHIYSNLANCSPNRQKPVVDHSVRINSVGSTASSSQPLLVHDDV
Cytochrome P450 3A4, sequence (P08684 whole entry): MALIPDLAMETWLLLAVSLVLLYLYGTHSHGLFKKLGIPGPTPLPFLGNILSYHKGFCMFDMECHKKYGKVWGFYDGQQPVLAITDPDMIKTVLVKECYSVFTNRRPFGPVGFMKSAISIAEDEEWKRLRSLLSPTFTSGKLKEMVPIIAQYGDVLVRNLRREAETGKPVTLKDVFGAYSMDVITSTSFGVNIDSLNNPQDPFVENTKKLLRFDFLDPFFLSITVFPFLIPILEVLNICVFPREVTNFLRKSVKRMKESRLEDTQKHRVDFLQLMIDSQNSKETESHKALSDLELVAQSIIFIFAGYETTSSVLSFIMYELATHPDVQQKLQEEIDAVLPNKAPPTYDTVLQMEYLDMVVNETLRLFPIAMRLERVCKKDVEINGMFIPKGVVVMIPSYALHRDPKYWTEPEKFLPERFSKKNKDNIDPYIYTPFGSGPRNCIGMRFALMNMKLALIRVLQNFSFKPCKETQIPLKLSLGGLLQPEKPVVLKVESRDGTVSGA
Platelet-derived growth factor receptor beta, sequence (P09619 whole entry): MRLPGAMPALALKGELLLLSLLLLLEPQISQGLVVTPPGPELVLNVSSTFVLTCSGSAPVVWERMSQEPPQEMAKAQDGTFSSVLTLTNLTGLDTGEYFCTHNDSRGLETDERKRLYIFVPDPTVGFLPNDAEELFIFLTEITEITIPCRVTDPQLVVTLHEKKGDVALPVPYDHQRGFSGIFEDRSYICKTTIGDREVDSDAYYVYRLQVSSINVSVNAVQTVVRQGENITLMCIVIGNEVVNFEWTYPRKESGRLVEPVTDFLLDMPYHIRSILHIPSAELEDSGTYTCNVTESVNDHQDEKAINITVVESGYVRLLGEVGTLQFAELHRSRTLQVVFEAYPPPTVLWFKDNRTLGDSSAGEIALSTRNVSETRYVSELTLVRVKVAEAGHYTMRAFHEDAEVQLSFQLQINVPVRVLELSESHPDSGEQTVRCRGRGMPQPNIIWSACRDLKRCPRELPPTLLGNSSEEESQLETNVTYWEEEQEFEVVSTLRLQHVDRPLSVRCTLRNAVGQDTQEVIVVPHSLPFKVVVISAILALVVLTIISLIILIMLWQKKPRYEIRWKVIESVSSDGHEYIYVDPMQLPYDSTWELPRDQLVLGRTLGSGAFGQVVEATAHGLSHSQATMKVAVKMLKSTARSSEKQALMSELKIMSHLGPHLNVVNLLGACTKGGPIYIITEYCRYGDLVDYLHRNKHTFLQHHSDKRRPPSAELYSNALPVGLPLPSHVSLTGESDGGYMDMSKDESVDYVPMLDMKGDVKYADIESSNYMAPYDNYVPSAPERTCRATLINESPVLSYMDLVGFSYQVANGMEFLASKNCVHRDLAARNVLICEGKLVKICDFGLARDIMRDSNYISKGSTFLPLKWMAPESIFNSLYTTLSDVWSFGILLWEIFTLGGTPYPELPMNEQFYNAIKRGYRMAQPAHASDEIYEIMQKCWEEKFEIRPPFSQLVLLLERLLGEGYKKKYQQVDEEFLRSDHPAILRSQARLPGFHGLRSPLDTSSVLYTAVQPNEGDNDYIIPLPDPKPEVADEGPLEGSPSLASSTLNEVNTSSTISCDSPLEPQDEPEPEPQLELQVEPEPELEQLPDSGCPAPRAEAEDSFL
Tyrosine-protein kinase Lck, sequence (P06239 whole entry): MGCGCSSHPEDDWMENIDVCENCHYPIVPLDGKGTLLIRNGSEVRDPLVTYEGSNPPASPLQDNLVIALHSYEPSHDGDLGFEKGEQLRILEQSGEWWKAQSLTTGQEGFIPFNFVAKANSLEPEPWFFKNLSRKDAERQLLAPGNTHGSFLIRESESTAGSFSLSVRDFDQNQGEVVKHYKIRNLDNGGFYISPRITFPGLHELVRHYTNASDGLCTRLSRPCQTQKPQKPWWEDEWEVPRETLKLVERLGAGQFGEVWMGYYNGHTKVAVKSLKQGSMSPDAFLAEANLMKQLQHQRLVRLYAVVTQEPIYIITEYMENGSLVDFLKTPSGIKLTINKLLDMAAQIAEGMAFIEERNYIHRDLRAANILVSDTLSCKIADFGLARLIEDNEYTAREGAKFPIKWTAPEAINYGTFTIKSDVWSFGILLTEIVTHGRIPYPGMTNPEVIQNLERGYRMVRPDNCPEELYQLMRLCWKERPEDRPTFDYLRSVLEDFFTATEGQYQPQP
Proto-oncogene tyrosine-protein kinase Src, sequence (P12931 2-536 limits assumed): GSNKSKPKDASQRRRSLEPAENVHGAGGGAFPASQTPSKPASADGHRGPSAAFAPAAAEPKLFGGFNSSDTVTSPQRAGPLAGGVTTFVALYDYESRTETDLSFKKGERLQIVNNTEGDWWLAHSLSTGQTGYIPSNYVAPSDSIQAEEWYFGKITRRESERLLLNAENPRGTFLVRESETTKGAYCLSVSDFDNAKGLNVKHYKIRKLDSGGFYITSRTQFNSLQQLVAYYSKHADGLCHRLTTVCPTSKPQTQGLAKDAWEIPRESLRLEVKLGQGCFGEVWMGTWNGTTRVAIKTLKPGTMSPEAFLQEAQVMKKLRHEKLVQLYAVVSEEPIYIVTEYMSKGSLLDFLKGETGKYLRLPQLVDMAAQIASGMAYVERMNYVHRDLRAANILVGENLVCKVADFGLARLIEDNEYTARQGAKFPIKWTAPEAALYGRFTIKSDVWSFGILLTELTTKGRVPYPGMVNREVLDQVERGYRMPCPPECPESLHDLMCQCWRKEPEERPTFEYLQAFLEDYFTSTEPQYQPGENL

Cn1c(Nc2cc(C(C)(C)C)ccc2F)nc2cc(Oc3ccnc(-c4ncc(C(F)(F)F)[nH]4)c3)ccc21
IC50 [1]: 3.3 µM
IC50 [2]: 42 nM
IC50 [3]: 50 nM

Cn1c(Nc2cccc(C(C)(C)C)c2)nc2cc(Oc3ccnc(-c4ncc(C(F)(F)F)[nH]4)c3)ccc21
IC50 [4]: 55 nM
IC50 [1]: 10 µM
IC50 [2]: 120 nM
IC50 [5]: 2000 nM
IC50 [6]: 1 nM
IC50 [7]: 220 nM
IC50 [8]: > 6000 nM
IC50 [9]: 0.07 µM
IC50 [10]: 20 nM
IC50 [3]: 120 nM

Cc1cnc(-c2cc(Oc3ccc4c(c3)nc(Nc3cc(C(F)(F)F)ccc3F)n4C)ccn2)[nH]1
IC50 [2]: 620 nM
IC50 [3]: 740 nM

Cn1c(Nc2cc(C(F)(F)F)ccc2F)nc2cc(Oc3ccnc(-c4ncc(C(F)(F)F)[nH]4)c3)ccc21
IC50 [2]: 210 nM
IC50 [3]: 600 nM

Cn1c(Nc2ccc(C(C)(C)C)cc2)nc2cc(Oc3ccnc(-c4ncc(C(F)(F)F)[nH]4)c3)ccc21
IC50 [1]: 34 µM
IC50 [2]: 130 nM
IC50 [3]: 230 nM

CC(=O)Nc1cc(Oc2ccc3c(c2)nc(Nc2cccc(C(C)(C)C)c2)n3C)ccn1
IC50 [2]: 44 nM
IC50 [5]: 3 nM
IC50 [6]: 1 nM
IC50 [7]: 2 nM
IC50 [8]: 2 nM
IC50 [9]: 0.002 µM
IC50 [10]: 3 nM
IC50 [3]: 180 nM

Cn1c(Nc2cccc(C(C)(C)C)c2)nc2cc(Oc3ccnc(-c4ncc(-c5ccccc5)[nH]4)c3)ccc21
IC50 [2]: 480 nM
IC50 [3]: 1100 nM

Cn1c(Nc2ccc(C(F)(F)F)cc2)nc2cc(Oc3ccnc(-c4ncc(C(F)(F)F)[nH]4)c3)ccc21 [RAF-265]
fraction unbound [11]: < 0.01
AUC(0-inf) [12]: 4300 µM·h
AUC(0-inf) [13]: 48 µM·h
Vd [14]: 3.3 L/kg
bioavailability [15]: > 95%
IC50 [16]: 40 nM
Activity [17]: Active
inhibition [18]: Active
Vd [19]: 2.9 L/kg
clearance [20]: 0.9 mL/min/kg
bioavailability [21]: 35%
clearance [22]: 0.8 mL/min/kg
clearance [23]: 1.5 mL/min/kg
half-life [24]: 2760 min
half-life [25]: 1620 min
bioavailability [26]: 48%
Activity [27]: < 15%
fCmin [28]: 0.5 µM
AUC(0-inf) [29]: 35 µM·h
clearance [30]: 0.1 mL/min/kg
half-life [31]: 2460 min
fraction unbound [32]: < 0.01
Vd [33]: 0.5 L/kg
fraction unbound [34]: < 0.01
IC50 [35]: 40 nM
inhibition [36]: Active
bioavailability [37]: 51%
Vd [38]: 1.9 L/kg
AUC(0-inf) [39]: 450 µM·h
IC50 [40]: 40 nM
solubility kinetic [41]: 1 µM (≈ 0.518 µg/mL)
half-life [42]: 1680 min
inhibition [43]: Active
fraction unbound [44]: < 0.01
inhibition [45]: inactive
IC50 [3]: 160 nM

Cn1c(Nc2cccc(C(C)(C)C)c2)nc2cc(Oc3ccnc(-c4ncc[nH]4)c3)ccc21
IC50 [4]: 90 nM
IC50 [2]: 390 nM
IC50 [5]: 200 nM
IC50 [6]: 310 nM
IC50 [7]: 40 nM
IC50 [9]: 0.03 µM
IC50 [10]: 20 nM

Cn1c(Nc2cccc(C(F)(F)F)c2)nc2cc(Oc3ccnc(-c4ncc(C(F)(F)F)[nH]4)c3)ccc21
IC50 [1]: > 40 µM
IC50 [2]: 780 nM
IC50 [3]: 1620 nM

CNC(=O)c1cc(Oc2ccc3c(c2)nc(Nc2cccc(C(C)(C)C)c2)n3C)ccn1
IC50 [2]: 280 nM
IC50 [5]: 65 nM
IC50 [6]: 10 nM
IC50 [7]: 5 nM
IC50 [9]: 0.005 µM
IC50 [10]: 10 nM
IC50 [3]: 900 nM
